# Measurements reported in patent US9072729B2, “Method for treating fibrosis and cancer with imidazolium and imidazolinium compounds” (Agency for Science, Technology and Research, priority 2008, dated 2015).
# How the values were obtained:
# HLE cells = experiment: Cell cycle analysis (PI flow cytometry); type: cell-based, human; settings: 72 h; for cells in the S phase: at respective IC-50, control 24%; for cells in the G2/M phase: at respective IC-50, control 30%; for cells in the G1 phase: at respective IC-50, control 50%
# Description: FIG. 37. IMSs arrest Hepatocarcinoma cells. Cells were treated with vehicle and IBN 15, IBN 19, IBN 24, IBN 25 and IBN 32 for 72 h, and cell cycle distribution was assessed by flow cytometry. A) Example FACS profiles of propidium iodide-stained control cells, and cells treated with IMSs respectively. B) % of cells in cell cycle phase C) % of cells in subG0 population. Each value is the mean±S.D. of three determinations.
# To perform cell cycle distribution analysis, 4×10^5 cells were plated in 10 cm dish. The cells (70% confluence) were serum-starved for 24 h to synchronize them in the G0 phase of the cell cycle. After 24 h incubation, the cells were replaced with fresh 10% DMEM medium and then treated 60 μM of IBN-15, 90 μM of IBN-19, 90 μM of IBN-24, 30 μM of […] and 20 μM of IBN-32) and 0.045% DMSO as control for 72 h. The floating and trypsinized adherent cells were collected and washed with PBS. The cell pellets were resuspended in 1 ml of PBS and fixed by the addition of 70% ice-cold ethanol and stored at −20° C. After incubation for 24 hr, the cells were re-pelleted by centrifugation, the cells were washed once with PBS and resuspended in 0.1 mL of PBS containing 100 μg/ml of RNase and then incubated at 37° C. for 15 min. Finally, the cells were stained with 0.5 ml of PI solution (100 μg/mL in PBS) for 30 min. Cell cycle distribution was detected by a BD FACS array flow cytometer (Becton Dickinson). Cells with sub-G0 DNA were classified as apoptotic cells.
# [1] = tested on: caspase 3, caspase 9 and PARP; experiment: Western blot of caspase-3, caspase-9 and PARP cleavage in HLE; type: cell-based, human; settings: 72 h
# Description: FIG. 38. IMSs, induce cleavage of caspase-3, caspase-9 and PARP. Western blot analysis for the effect of IBN 15, IBM 19, IBN 24, IBM 25, IBN 32 on the cleavage of caspase-3, Caspase-9 and PARP in HLE cells after 72 h exposure to indicated doses of IMSs.
# The HLE cells were seeded at a density of 4×10^5 in 10 cm dish. After 24 h incubation, the cells were replaced with fresh 10% DMEM medium and then treated with 60 μM of IBN-15, 90 μM of IBN-19, 90 μM of IBN-24, 30 μM of IBN-25 and 20 μM of IBN 32 and 0.045% DMSO as control for 72 h. Whole cell lysates were prepared on day 3 with lysis buffer [125 mM Tris (pH 7.4), 2% Sodium dodecyl sulfate, 10% glycerol, 6M urea and a protease inhibitor cocktail (Sigma) and 0.02% Bromophenol blue]. The lysates were sonicated for 30 seconds and then heated for 5 mins at boiling temperature. The lysates were centrifuged at 13000 rpm for 10 mins and the protein concentration of each sample was estimated using the BCA protein assay. The lysates was then mixed with 5% 2-mercaptoethanol and stored at −80 C. For Western blotting, samples containing 50 μg of total cell lysate were loaded onto a SDS-PAGE and subjected to electrophoresis. Proteins were transferred to a nitrocellulose membrane and then blocked with 5% non-fat dry milk in Tris buffer saline containing 0.1% Tween 20 for 60 min at 37 C. The membranes were probed with a primary antibody overnight at 4 C in TEST containing 5% Bovine serum albumin. Then the membrane was incubated with horseradish peroxidase (HRP)-conjugated anti-rabbit or anti-mouse secondary antibodies (GE Health care, Chalfont St Giles, UK). Detection was performed with enhanced chemiluminescence (ECL) reagent (Amersham Arlington Heights, Ill.) according to the manufacturer's protocol. Rabbit polyclonal Phospho-p53 (Ser15, 20, 46, 392), anti-caspase-9, anti-caspase-3, anti-PARP antibodies were purchased from Cell Signaling Technology, Inc. (Beverly, Mass., USA). Antibodies against p53 and p21 were purchased from Santa Cruz Biotechnology (Santa Cruz, Calif., USA).
# [2] = General toxicity of IMSs in mice; type: in vivo; settings: mouse, in vivo, ip; FVB mice, intraperitoneally every other day for 2 weeks; estimated
# Description: (§1) IMSs (DPIM and DBZIM) were dissolved in saline, and administered to Friend virus B-Type (FVB) mice (weighing ˜25-30 g) intraperitoneally every other day for 2 weeks. The dosages were 0, 200, 300, 350, 400 and 500 mg/kg for DPIM, and 0, 10, 30, 35, 40 and […] for DBZIM. The injection volume was maintained at 100-160 μl. The mortality rate of mice was assessed after the treatment. The animal experimental protocol was approved by the Institutional Animal Care and Use Committee (IACUC) of Biological Resource Center (BRC) at Biopolis, Singapore.
# (§2) In the preliminary toxicity studies, two forms of IMSs were selected for in vivo testing with FVB inbred mice. For DBZIM, the lethal dosage was 50 mg/kg and LD50 was estimated to be 30-40 mg/kg. For DPIM, the lethal dosage was 500 mg/kg and LD50 was ˜300-400 mg/kg.
# FVB mice = experiment: General toxicity of IMSs in mice; type: in vivo; settings: intraperitoneally every other day for 2 weeks
# Description: as §1, §2
# TGF-β1 = experiment: Real-time RT-PCR of TGF-β1 mRNA in HSC T6 cells; type: cell-based, rat; settings: 48 h
# Description: FIG. 9. DBZIM and TDBZIM suppressed TGF-β1 mRNA. HSC T6 cells were incubated with (a) DBZIM (1, 10, 100 and 300 μM) and (b) TDBZIM (1, 10 and 100 μM) for 48 h for the dosage-dependent study, and (c) with DBZIM (100 μM) and TDBZIM (100 μM) for 8, 24 and 48 h for the time-dependent study. The expression level of TGF-β1 mRNA was quantified with real-time RT-PCR. The data were presented as mean and SEM, N=6, *^aP<0.05, *^bP<0.01, *^cP<0.005, when compared to vehicle control.
# Total RNA was isolated using NucleoSpin RNAII isolation kit (Nacherey & Nagel, Germany), and quantified by ND-100 spectrophotometer (Nanodrop Technologies, DE, USA). The details of real-time RT-PCR were reported elsewhere (Zhang et al. 2006). Briefly, it was a two-step real-time RT-PCR using Taqman chemistry. Total RNA was first reverse transcribed to cDNA, and real-time PCR was run and detected in ABI 7500 Fast Real-Time PCR System (Applied Biosystems, CA, USA). Primers and probes for rat GFAP, SMAA, collagen Ia1, fibronectin, TGF-β1, TGF-β receptor I (TGFβ RI) and IL-6 were ordered from Taqman's assay-on-demand database. Rat β-actin was used as normalization gene, and its expression level was constant (CT difference was <±0.5) throughout the experimental settings in this study. Relative quantification of target mRNA was calculated using comparative threshold cycle method (ΔΔCT) as described in User Bulletin #2 (ABI Prism 7700 Sequence Detection System). Relative quantification was given by 2^−ΔΔCT to express the up-regulation or down regulation of the target gene under the treatments compared to the control.
Compound,cells in the S phase (HLE cells) [%],cells in the G2/M phase (HLE cells) [%],cells in the G1 phase (HLE cells) [%],"activation and cleavage of caspase 3, caspase 9 and PARP [1]",LD50 at 2 weeks [2] [mg/kg],lethal dosage (FVB mice) [mg/kg],other results
"Cc1ccc(C[n+]2ccn(Cc3ccccc3)c2)cc1.[Cl-] [IBN-24, 1-benzyl-3-(4-methylbenzyl)-imidazolium chloride]",11.34,16.3,28.6,induced significant activation and cleavage,–,–,–
"CC(=O)Oc1ccc(C[n+]2ccn(Cc3ccccc3)c2C)cc1.[Cl-] [IBN-19, 1-benzyl-3-(4-acetate-benzyl)-2-methyl-imidazolium chloride]",19.8,23.7,29,induced significant activation and cleavage,–,–,–
"CC(C)n1cc[n+](C(C)C)c1.F[B-](F)(F)F [DPIM, 1,3-diisopropylimidazolium tetrafluoroborate]",–,–,–,–,300 to 400,500,–
"1,3,5-tris(4-methyl-imidazolium)-linked cyclophane.3Br [TDBZIM]",–,–,–,–,–,–,inhibition of TGF-β1 mRNA (TGF-β1; regardless of dosage (1-100 μM)): ~23%
"[Br-].c1ccc(Cn2cc[n+](Cc3ccccc3)c2)cc1 [DBZIM, 1,3-bisbenzylimidazolium bromide]",–,–,–,–,30 to 40,50,suppression of TGF-β1 mRNA (TGF-β1; 100 μM): 28%; suppression of TGF-β1 mRNA (TGF-β1; 300 μM): 33%
